# Experimental data: patent publication US20220008451A1, “FLAVIN ADENINE DINUCLEOTIDE (FAD) FOR USE IN THE PREVENTION AND/OR TREATMENT OF CANCER” (priority 2018, published 2022)
# Key:
# MIA Paca-2 cells = test: MIA Paca-2 MTT viability test; type: cell-based, human; conditions: 120 μM/L, 2 hours
# Protocol: (§1) MIA Paca-2 cells are human pancreatic cancer cells [American Tissue Cell Culture (ATCC, Manassas, Va., USA)] cultured in DMEM medium. The MTT viability test is performed at a cell density of 0.1×10*6 cells/mL. The tested products are incubated for 2 hours at a concentration of 120 μM/L and in triplicate, with culture control (ref: Blank) (100%) and a positive DMSO control (5%). Under these conditions, cell viability is 34% in the presence of FAD alone, 6% with FAD-PEG.
# [1] = tested on: Mouse HEP 1-6 liver cancer cells; test: HEP 1-6 liver cancer model in mice; type: in vivo
# [2] = tested on: CEM (myeloid leukaemia) cells; test: Viability of CEM myeloid leukaemia cells; type: cell-based; conditions: 48 hours incubation; read-out: mean IC50, viability of cancer cells in the lineage
# cancer cells in culture = test: Growth inhibition of cancer cells in culture; type: cell-based; conditions: read-out: inhibitory concentration (IC50) reducing growth of cancer cells in culture by 50%
# [3] = tested on: Monocytes isolated from peripheral blood (PBMC); test: Viability of non-cancerous peripheral blood monocytes (PBMC); type: cell-based
# [4] = tested on: Nucleo PyroPhosphatase enzyme; test: Protection of FAD against Nucleo PyroPhosphatase hydrolysis (HPLC); type: in vitro ADME; conditions: 25° C.
# Protocol: FAD protection in particles in comparison with unbound FAD is studied. Different particles containing FAD are compared to unbound FAD: • The FAD encapsulated with a gold FAD-PEG particle ON is obtained by the ON method described in example 2. • The FAD encapsulated with a gold-FAD-PEG particle IN is obtained by the IN method obtained in example 1. The different particles and the unbound FAD are each placed in a solution of the Nucleo PyroPhosphatase enzyme at 25° C. The concentration of the FAD is monitored over time by HPLC assay.
# [5] = tested on: HT-1080 fibrosarcoma cells; test: Viability of HT-1080 cells; type: cell-based; conditions: Homo sapiens
# Huh-7replicon = test: Viability of Huh-7replicon cells; type: cell-based
# [6] = MIA Paca-2 MTT viability test; type: cell-based, human; conditions: human, MIA Paca-2 cells, read-out: cell viability
# Protocol: as §1
# [7] = tested on: HT22 cells (murine brain tumour); test: HT22 growth inhibition, MTS test; type: cell-based
# Protocol: HT22 cells (murine brain tumour) are tested with the gold-FAD-PEG particle obtained by the IN method.
# DNA aptamer = test: Intercalation in DNA aptamer grafted on gold nanoparticles; type: binding; conditions: 5 mg/ml, UV visible and RAMAN
# From the text: Small molecules with aromatic structures are intercalated into DNA, which is the case of some extremely powerful and effective drugs. The hypothesis that FAD intercalates into DNA has been tested using a DNA aptamer grafted onto the surface of nanoparticles (NP).
# The aptamer used is a single-stranded, thiolated DNA sequence of formula 5′HS-TT TTTTTTTTTTTTTTCTTCTCTAGCTGAATAACCGGAAGTAACTCATCGTTTCGATGAGTTACTTCCGGTTATTCAGCTAGAGAAG 3′, grafted to the surface of gold nanoparticles in the presence of a catalyst agent (N-[3-(dimethylamino) propyl]-N′-ethylcarbodiimide/N-hydroxysuccinimide, Sigma-Aldrich) (EDC/NHS), 50 μL, of DNA with a ratio (40 mg/10 mg) to 5 ml of gold NP solution, to allow activation of the carboxylic group (PEG-COOH) on the surface of the nanoparticles for immobilisation of the aptamer by covalent bonds. The bond is made between the carboxyl group of the EDC/NHS-activated PEG and the NH2 groups of the aptamer.
# The grafting of the DNA on the surface of the gold nanoparticles is verified by UV spectroscopy (UV-visible absorbance measurements).
# The particles were then placed in the presence of FAD or FAG-PEG (5 mg/ml, two formulations) and DNA intercalation, detected and measured by two techniques: UV visible and by RAMAN spectroscopy.
# [8] = tested on: HepG2 hepatocellular carcinoma; test: Viability of HepG2 cells; type: cell-based; conditions: Homo sapiens
# [9] = tested on: murine breast cancer cell line 4T1; test: 4T1 breast cancer model in mice; type: in vivo, BALB/c mice; conditions: compared to control groups
# [10] = tested on: MiaPaCA2 pancreatic cancer; test: Viability of MiaPaCA2 cells (Example 14); type: cell-based
# [11] = Resistance to hydrolysis in serum; type: in vitro ADME; conditions: 20 hours
# Protocol: A comparative hydrolysis test of unbound FAD and micrometer-sized FAD-PEG obtained in Example 7 is performed in serum to test resistance to enzymes.
# [12] = tested on: MCF7 (breast cancer) cancer cells; test: MCF7 growth inhibition, MTS test; type: cell-based; conditions: 48 hours
# Protocol: Growth inhibition of MCF7 (breast cancer) cancer cells is tested on MCF7 cells in culture for 48 hours in contact with the gold-FAD-PEG particle with or without a targeting agent obtained by the IN method. […] (Promega—Cell Titer Proliferation Assay).
compound,measurement,setting,value
"C[S+](C)[O-] [DMSO, reference compound]",cell viability,MIA Paca-2 cells,5%
"Cc1cc2nc3c(=O)[nH]c(=O)nc-3n(CC(O)C(O)C(O)COP(=O)(O)OP(=O)(O)OC[C@H]3O[C@@H](n4cnc5c(N)ncnc54)C(O)C3O)c2cc1C (stereo partly drawn) [FAD, Flavin Adenine Dinucleotide]",reduction in tumour volume,[1],24%
same,IC50,[2],1.6 µM
same,IC50,cancer cells in culture,0.5 to 5 µM
same,IC50,"[3]; 48 hours incubation, read-out: IC50, viability of primary non-cancerous cells",> 100 µM
same,GI50,[3]; normal blood monocytes PBM cells,> 100 µM
same,time to full hydrolysis of FAD,[4],≤ 15 min
same,IC50,[5],1.1 to 1.8 µM
same,IC50,Huh-7replicon,1.1 to 1.8 µM
same,"viability at 2 hours, 120 μM/L",[6],34%
same,IC50,"[7]; Mus musculus, HT-22, Example 14, read-out: IC50, viability of HT22 neuronal cancer cells",1.6 µM
same,DNA intercalation,DNA aptamer,intercalates to DNA
same,IC50,[8],1.1 to 1.8 µM
same,IL-10 content,[9],significantly increased
same,level of IL-1α,[9],significantly reduced
same,level of IL-1 β,[9],significantly reduced
same,level of IL-6,[9],significantly reduced
same,level of IL-12P70,[9],significantly reduced
same,level of TNF α,[9],significantly reduced
same,viability of the cells,"[10]; 90 μM, 24 hours of exposure",significantly altered
same,IC50,"[10]; Homo sapiens, MIA PaCa-2, MiaPaCA2",10 µM
same,hydrolysis in serum,[11],almost completely hydrolyzed
"CN[C@@H]1C[C@H]2O[C@@](C)([C@@H]1OC)n1c3ccccc3c3c4c(c5c6ccccc6n2c5c31)C(=O)NC4 [staurosporin, reference compound]",GI50,[12],~40 µM
same,GI50,"[7]; read-out: 50% growth inhibition (GI 50), 48 hours, MTS",2.7 µM
